In PubChem BioAssay AID330 (DTP/NCI, 2004):
“And” between values parts separate entries of the source, which are not always exact repeats. Identical values can stand only once. Toxic doses and inconclusive results are not listed. How the source made its calls: active means survival T/C of 150% or more; inactive means T/C below 125% in these data.

Tested on: P388 leukemia ip, CD2F1 mice, survival T/C
Test: NCI In Vivo Anticancer Drug Screen. Data for tumor model P388 Leukemia (intraperitoneal) in CD2F1 (CDF1) mice
Settings: endpoint: median survival time, higher = longer survival
How it was run: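 Mice carrying the transplanted tumor received test compound or vehicle. Survival was recorded in each group, and the value is the treated-group measurement divided by that of the vehicle-treated control group.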

[1] = dose: 50.0 mg/kg/injection, schedule: Q04DX003 (ip), vehicle: saline with Tween-80
[2] = dose: 50.0 mg/kg/injection, schedule: Q01DX005 (ip), vehicle: saline with Tween-80
[3] = dose: 100.0 mg/kg/injection, schedule: Q01DX005 (ip), vehicle: saline with Tween-80
[4] = dose: 200.0 mg/kg/injection, schedule: Q01DX005 (ip), vehicle: saline with Tween-80
[5] = dose: 60.0 mg/kg/injection, schedule: Q01DX005 (ip), vehicle: saline with Tween-80
[6] = dose: 12.5 mg/kg/injection, schedule: Q01DX009 (ip), vehicle: saline with Tween-80
[7] = dose: 25.0 mg/kg/injection, schedule: Q01DX009 (ip), vehicle: saline with Tween-80
[8] = dose: 50.0 mg/kg/injection, schedule: Q01DX009 (ip), vehicle: saline with Tween-80
[9] = dose: 6.25 mg/kg/injection, schedule: Q01DX005 (ip), vehicle: saline with Tween-80
[10] = dose: 12.5 mg/kg/injection, schedule: Q01DX005 (ip), vehicle: saline with Tween-80
[11] = dose: 25.0 mg/kg/injection, schedule: Q01DX005 (ip), vehicle: saline with Tween-80

Measured: T/C

C[N+](C)(C)C1(Cc2ccccc2)c2ccccc2-c2ccc(Cl)cc21 (configuration not stated)
inactive: dose: 12.5 mg/kg/injection, schedule: Q01DX009 (ip), vehicle: Klucel (hydroxypropylcellulose) (HPC) 107 % of control | dose: 25.0 mg/kg/injection, schedule: Q01DX009 (ip), vehicle: Klucel (hydroxypropylcellulose) (HPC) 105 % of control | dose: 50.0 mg/kg/injection, schedule: Q01DX009 (ip), vehicle: Klucel (hydroxypropylcellulose) (HPC) 108 % of control and 94 % of control

Ic1ccc2c(c1)N(c1ccccc1)c1cc(N=c3ccc4nc5ccc(I)cc5n(-c5ccccc5)c-4c3)ccc1N2
inactive: dose: 100.0 mg/kg/injection, schedule: Q01DX009 (ip), vehicle: Klucel (hydroxypropylcellulose) (HPC) 96 % of control | dose: 200.0 mg/kg/injection, schedule: Q01DX009 (ip), vehicle: Klucel (hydroxypropylcellulose) (HPC) 89 % of control

N#C/C=C1\C=CC(O)C(O)C1OC1OC(CO)C(O)C(O)C1O (configuration not stated)
inactive: dose: 6.0 mg/kg/injection, schedule: Q01DX009 (ip), vehicle: saline 103 % of control | dose: 12.0 mg/kg/injection, schedule: Q01DX009 (ip), vehicle: saline 103 % of control | dose: 24.0 mg/kg/injection, schedule: Q01DX009 (ip), vehicle: saline 100 % of control | dose: 48.0 mg/kg/injection, schedule: Q01DX009 (ip), vehicle: saline 105 % of control

CCCCNC(=O)OCCN(CCOC(=O)NCCCC)C(=O)N1c2ccccc2Sc2ccccc21
inactive: [1] 98 % of control | dose: 100.0 mg/kg/injection, schedule: Q04DX003 (ip), vehicle: saline with Tween-80 90 % of control | dose: 200.0 mg/kg/injection, schedule: Q04DX003 (ip), vehicle: saline with Tween-80 90 % of control

COC(=O)C1(C2(C(=O)OC)NC(C)=C(c3ccccc3)C(=O)O2)NC(C)=C(c2ccccc2)C(=O)O1 (configuration not stated)
inactive: [2] 97 % of control | [3] 100 % of control | [4] 91 % of control

Cc1c(O)c2ccccc2c2c1sc(NCCO)[n+]2C
inactive: dose: 15.0 mg/kg/injection, schedule: Q01DX005 (ip), vehicle: saline with Tween-80 100 % of control | dose: 30.0 mg/kg/injection, schedule: Q01DX005 (ip), vehicle: saline with Tween-80 105 % of control | [5] 98 % of control and 99 % of control

CCCCCCC(=O)/C=C/c1ccc(OC(=O)c2ccc(Br)cc2)cc1
inactive: [6] 104 % of control | [7] 96 % of control | [8] 96 % of control

CCCCN(CCCC)c1ccc(C(=NC(C)CCCN(CC)CC)c2ccc(N(C)C)cc2)cc1 (configuration not stated)
inactive: [9] 107 % of control | [10] 98 % of control | [11] 100 % of control

Cc1ccc(-c2n[nH]c(=O)c(C#N)c2-c2ccc(C)cc2)cc1
inactive: dose: 100.0 mg/kg/injection, schedule: Q04DX002 (ip), vehicle: saline with Tween-80 88 % of control | dose: 400.0 mg/kg/injection, schedule: Q04DX002 (ip), vehicle: saline with Tween-80 88 % of control

CCCC(=O)CC(=O)Nc1ccccc1
inactive: dose: 100.0 mg/kg/injection, schedule: Q01DX001 (ip), vehicle: saline 109 % of control | dose: 200.0 mg/kg/injection, schedule: Q01DX001 (ip), vehicle: saline 118 % of control | dose: 400.0 mg/kg/injection, schedule: Q01DX001 (ip), vehicle: saline 118 % of control

CCCCCc1cc(O)c2c(c1)OC(C)(CCC=C(C)C)C=C2 (configuration not stated)
inactive: dose: 6.25 mg/kg/injection, schedule: Q01DX009 (ip), vehicle: saline with Tween-80 100 % of control | [6] 110 % of control | [7] 109 % of control | [8] 112 % of control

CC1(C)c2c3ccccc3cc3cccc(c23)[S+]1c1ccccc1 (configuration not stated)
inactive: dose: 5.0 mg/kg/injection, schedule: Q04DX003 (ip), vehicle: saline 100 % of control | dose: 10.0 mg/kg/injection, schedule: Q04DX003 (ip), vehicle: saline 104 % of control | dose: 20.0 mg/kg/injection, schedule: Q04DX003 (ip), vehicle: saline 108 % of control

CC(=O)OCC12CCC(C)=CC1OC1C(=O)CC2(C)C12CO2 (configuration not stated)
inactive: dose: 0.5 mg/kg/injection, schedule: Q01DX009 (ip), vehicle: saline 100 % of control | dose: 1.0 mg/kg/injection, schedule: Q01DX009 (ip), vehicle: saline 101 % of control | dose: 2.0 mg/kg/injection, schedule: Q01DX009 (ip), vehicle: saline 94 % of control | dose: 4.0 mg/kg/injection, schedule: Q01DX009 (ip), vehicle: saline 110 % of control

Cc1ccc(C(=O)/C(N)=C\c2c[nH]c3ccccc23)cc1
inactive: dose: 100.0 mg/kg/injection, schedule: Q01DX001 (ip), vehicle: saline with Tween-80 104 % of control | dose: 200.0 mg/kg/injection, schedule: Q01DX001 (ip), vehicle: saline with Tween-80 100 % of control | dose: 400.0 mg/kg/injection, schedule: Q01DX001 (ip), vehicle: saline with Tween-80 98 % of control

CC[As](CC)SC1OC(C2COC(C)(C)O2)C2OC(C)(C)OC12 (configuration not stated)
inactive: dose: 12.5 mg/kg/injection, schedule: Q01DX009 (ip), vehicle: distilled water + Tween-80 120 % of control | dose: 25.0 mg/kg/injection, schedule: Q01DX009 (ip), vehicle: distilled water + Tween-80 123 % of control | dose: 50.0 mg/kg/injection, schedule: Q01DX009 (ip), vehicle: distilled water + Tween-80 120 % of control

CCOC(=O)C(C#N)C(=N)C1CC(C)OC1=O (configuration not stated)
inactive: [5] 100 % of control | dose: 120.0 mg/kg/injection, schedule: Q01DX005 (ip), vehicle: saline with Tween-80 100 % of control | dose: 240.0 mg/kg/injection, schedule: Q01DX005 (ip), vehicle: saline with Tween-80 98 % of control

c1ccc(-n2nc3c(c2-c2ccncc2)CCCc2ccccc2-3)cc1
inactive: dose: 12.5 mg/kg/injection, schedule: Q01DX009 (ip), vehicle: other 96 % of control | dose: 25.0 mg/kg/injection, schedule: Q01DX009 (ip), vehicle: other 98 % of control | dose: 50.0 mg/kg/injection, schedule: Q01DX009 (ip), vehicle: other 120 % of control | dose: 100.0 mg/kg/injection, schedule: Q01DX009 (ip), vehicle: other 110 % of control | dose: 200.0 mg/kg/injection, schedule: Q01DX009 (ip), vehicle: other 96 % of control

CC(C)=CC[P+](CCC[P+](CC=C(C)C)(c1ccccc1)c1ccccc1)(c1ccccc1)c1ccccc1
inactive: dose: 3.12 mg/kg/injection, schedule: Q01DX005 (ip), vehicle: saline with Tween-80 106 % of control | [9] 104 % of control | [10] 98 % of control

CC(=O)NC1c2ccccc2CCC1OC(C)=O (configuration not stated)
inactive: [2] 99 % of control | [3] 99 % of control | [4] 99 % of control

CS(=O)(=O)OCC(=O)NCCNC(=O)COS(C)(=O)=O
inactive: dose: 12.5 mg/kg/injection, schedule: Q04DX003 (ip), vehicle: saline with Tween-80 100 % of control | dose: 25.0 mg/kg/injection, schedule: Q04DX003 (ip), vehicle: saline with Tween-80 108 % of control | [1] 120 % of control

C(=N[C@H]1CCCC[C@H]1N=Cc1ccc[nH]1)c1ccc[nH]1
inactive: [9] 99 % of control | [10] 101 % of control | [11] 100 % of control | [3] 86 % of control

Cc1cc(C(=O)c2ccccc2)on1
inactive: dose: 100.0 mg/kg/injection, schedule: Q04DX003 (ip), vehicle: Klucel (hydroxypropylcellulose) (HPC) 104 % of control | dose: 200.0 mg/kg/injection, schedule: Q04DX003 (ip), vehicle: Klucel (hydroxypropylcellulose) (HPC) 100 % of control | dose: 400.0 mg/kg/injection, schedule: Q04DX003 (ip), vehicle: Klucel (hydroxypropylcellulose) (HPC) 100 % of control

CC[As](CC)SC1CC(OC(=O)c2ccccc2)C(OC(=O)c2ccccc2)C(COC(=O)c2ccccc2)O1 (configuration not stated)
inactive: [8] 100 % of control | dose: 100.0 mg/kg/injection, schedule: Q01DX009 (ip), vehicle: saline with Tween-80 105 % of control
